Experimental data as given in EP4230621A1, “SUBSTITUTED N-BENZOIC ACID URACILS, THEIR SALTS AND USE OF SAID COMPOUNDS AS HERBICIDAL AGENTS” (Bayer AG, priority 2022, dated 2023).

How the values were obtained:
Type in all cases: in vivo
Viola tricolor = test: Post-emergence herbicidal action against VIOTR (greenhouse pot test)
From the text: (§1) Die folgenden Abkürzungen werden für die in den folgenden Tabellen aufgeführten Kultur- und Schadpflanzen verwendet: ABUTH: Abutilon theophrasti ALOMY: Alopecurus myosuroides AMARE: Amaranthus retroflexus BRSNS: Brassica napus DIGSA: Digitaria sanguinalis ECHCG: Echinochloa crus-galli GLXMA: Glycine max KCHSC: Kochia scoparia LOLRI: Lolium rigidum MATIN: Matricaria inodora ORYZA: Oryza sativa PHPBU: Pharbitis purpurea POLCO: Polygonum convolvulus SETVI: Setaria viridis VERPE: Veronica persica VIOTR: Viola tricolor TRZAS: Triticum aestivum ZEAMX: Zea mays
(§2) Samen von mono- bzw. dikotylen Unkrautpflanzen wurden in Kunststoff- oder Holzfasertöpfen in sandigem Lehmboden ausgelegt, mit Erde abgedeckt und im Gewächshaus unter kontrollierten Wachstumsbedingungen angezogen. 2 bis 3 Wochen nach der Aussaat wurden die Versuchspflanzen im Einblattstadium behandelt. Die in Form von benetzbaren Pulvern (WP) oder als Emulsionskonzentrate (EC) formulierten erfindungsgemäßen Verbindungen wurden dann als wässrige Suspension bzw. Emulsion unter Zusatz von 0,5% Additiv mit einer Wasseraufwandmenge von umgerechnet 600 1/ha auf die grünen Pflanzenteile gesprüht. Nach ca. 3 Wochen Standzeit der Versuchspflanzen im Gewächshaus, unter optimalen Wachstumsbedingungen, wurde die Wirkung der Präparate visuell im Vergleich zu unbehandelten Kontrollen bonitiert. Beispielsweise bedeutet 100% Wirkung = Pflanzen sind abgestorben, 0% Wirkung = wie Kontrollpflanzen.
(§3) In den nachstehenden Tabellen A1 bis A11 sind die Wirkungen ausgewählter Verbindungen der allgemeinen Formel (I) gemäß der Tabelle 1 auf verschiedene Schadpflanzen und einer Aufwandmenge entsprechend 80 g/ha und niedriger, die gemäß zuvor genannter Versuchsvorschrift erhalten wurden, dargestellt. Tabelle A1a: Nachauflaufwirkung bei 5 g/ha gegen ABUTH in %

Amaranthus retroflexus = test: Post-emergence herbicidal action against AMARE (greenhouse pot test); conditions: visual rating after ca. 3 weeks vs untreated controls (100% = plants dead, 0% = like controls)
From the text: as §1, §2, §3

Pharbitis purpurea = test: Post-emergence herbicidal action against PHBPU (greenhouse pot test)
From the text: as §1, §2, §3

Matricaria inodora = test: Post-emergence herbicidal action against MATIN (greenhouse pot test); conditions: for Nachauflaufwirkung gegen MATIN: visual rating after ca. 3 weeks vs untreated controls (100% = plants dead, 0% = like controls)
From the text: as §1, §2, §3

Digitaria sanguinalis = test: Post-emergence herbicidal action against DIGSA (greenhouse pot test); conditions: visual rating after ca. 3 weeks vs untreated controls (100% = plants dead, 0% = like controls)
From the text: as §1, §2, §3

Oryza sativa = test: Post-emergence action on crop plants, ORYZA (greenhouse pot test); conditions: 5 g/ha
From the text: as §1
as §2, with “Kulturpflanzen” for “Unkrautpflanzen”
as §3, with “B1” for “A1”, “B3” for “A11”, “Kulturpflanzen” for “Schadpflanzen”, “20” for “80”, “B1a:” for “A1a:”, “ZEAMX” for “ABUTH”

Setaria viridis = test: Post-emergence herbicidal action against SETVI (greenhouse pot test)
From the text: as §1, §2, §3

Polygonum convolvulus = test: Post-emergence herbicidal action against POLCO (greenhouse pot test)
From the text: as §1, §2, §3

Triticum aestivum = test: Post-emergence action on crop plants, TRZAS (greenhouse pot test); conditions: crop plant
From the text: as §1
as §2, with “Kulturpflanzen” for “Unkrautpflanzen”
as §3, with “B1” for “A1”, “B3” for “A11”, “Kulturpflanzen” for “Schadpflanzen”, “20” for “80”, “B1a:” for “A1a:”, “ZEAMX” for “ABUTH”

Abutilon theophrasti = test: Post-emergence herbicidal action against ABUTH (greenhouse pot test); conditions: visual rating after ca. 3 weeks vs untreated controls (100% = plants dead, 0% = like controls)
From the text: as §1, §2, §3

Lolium rigidum = test: Post-emergence herbicidal action against LOLRI (greenhouse pot test); conditions: visual rating after ca. 3 weeks vs untreated controls (100% = plants dead, 0% = like controls)
From the text: as §1, §2, §3

Alopecurus myosuroides = test: Post-emergence herbicidal action against ALOMY (greenhouse pot test); conditions: visual rating after ca. 3 weeks vs untreated controls (100% = plants dead, 0% = like controls)
From the text: as §1, §2, §3

Zea mays = test: Post-emergence action on crop plants, ZEAMX (greenhouse pot test); conditions: 5 g/ha, crop plant
From the text: as §1
as §2, with “Kulturpflanzen” for “Unkrautpflanzen”
as §3, with “B1” for “A1”, “B3” for “A11”, “Kulturpflanzen” for “Schadpflanzen”, “20” for “80”, “B1a:” for “A1a:”, “ZEAMX” for “ABUTH”

Veronica persica = test: Post-emergence herbicidal action against VERPE (greenhouse pot test)
From the text: as §1, §2, §3

Cn1c(C(F)(F)F)cc(=O)n(-c2cc(C(=O)OC(C)(C)C(=O)OCc3ccccn3)c(Cl)cc2F)c1=O [I.1-286]
Nachauflaufwirkung gegen VIOTR in % (Viola tricolor; 5 g/ha): 100%
Nachauflaufwirkung gegen VIOTR in % (Viola tricolor; 20 g/ha): 100%
Nachauflaufwirkung gegen VIOTR in % (Viola tricolor; 80 g/ha): 100%
Nachauflaufwirkung gegen AMARE (Amaranthus retroflexus; 5 g/ha): 100%
Nachauflaufwirkung gegen AMARE (Amaranthus retroflexus; 20 g/ha): 100%
Nachauflaufwirkung gegen AMARE (Amaranthus retroflexus; 80 g/ha): 100%
Nachauflaufwirkung gegen PHBPU in % (Pharbitis purpurea; 5 g/ha): 100%
Nachauflaufwirkung gegen PHBPU in % (Pharbitis purpurea; 20 g/ha): 100%
Nachauflaufwirkung gegen PHBPU in % (Pharbitis purpurea; 80 g/ha): 100%
Nachauflaufwirkung gegen MATIN (Matricaria inodora; 5 g/ha): 100%
Nachauflaufwirkung gegen MATIN (Matricaria inodora; 20 g/ha): 100%
Nachauflaufwirkung gegen MATIN in % (Matricaria inodora; 80 g/ha): 100%
Nachauflaufwirkung gegen DIGSA (Digitaria sanguinalis; 5 g/ha): 100%
Nachauflaufwirkung gegen DIGSA (Digitaria sanguinalis; 20 g/ha): 100%
Nachauflaufwirkung gegen DIGSA (Digitaria sanguinalis; 80 g/ha): 100%
Nachauflaufwirkung gegen ORYZA in % (Oryza sativa): 0%
Nachauflaufwirkung gegen SETVI in % (Setaria viridis; 5 g/ha): 100%
Nachauflaufwirkung gegen SETVI in % (Setaria viridis; 20 g/ha): 100%
Nachauflaufwirkung gegen SETVI in % (Setaria viridis; 80 g/ha): 100%
Nachauflaufwirkung gegen POLCO in % (Polygonum convolvulus; 5 g/ha): 100%
Nachauflaufwirkung gegen POLCO in % (Polygonum convolvulus; 20 g/ha): 100%
Nachauflaufwirkung gegen POLCO in % (Polygonum convolvulus; 80 g/ha): 100%
Nachauflaufwirkung gegen TRZAS in % (Triticum aestivum; 5 g/ha): 10%
Nachauflaufwirkung gegen TRZAS in % (Triticum aestivum; 20 g/ha): 20%
Nachauflaufwirkung gegen ABUTH (Abutilon theophrasti; 5 g/ha): 100%
Nachauflaufwirkung gegen ABUTH (Abutilon theophrasti; 20 g/ha): 100%
Nachauflaufwirkung gegen ABUTH (Abutilon theophrasti; 80 g/ha): 100%
Nachauflaufwirkung gegen LOLRI (Lolium rigidum; 20 g/ha): 90%
Nachauflaufwirkung gegen LOLRI (Lolium rigidum; 80 g/ha): 100%
Nachauflaufwirkung gegen ALOMY (Alopecurus myosuroides; 20 g/ha): 100%
Nachauflaufwirkung gegen ALOMY (Alopecurus myosuroides; 80 g/ha): 100%
Nachauflaufwirkung gegen ZEAMX in % (Zea mays): 20%
Nachauflaufwirkung gegen VERPE in % (Veronica persica; 5 g/ha): 100%
Nachauflaufwirkung gegen VERPE in % (Veronica persica; 20 g/ha): 100%
Nachauflaufwirkung gegen VERPE in % (Veronica persica; 80 g/ha): 100%
